Data on two molecules can be found in US20220073883A1, “COMPOSITIONS AND METHODS FOR GENERATION OF HEART FIELD-SPECIFIC PROGENITOR CELLS” (The Johns Hopkins University, priority 2018, published 2022).

What all share (assay type): cell-based, mouse
Experiment [1] has as its system ESC-derived cardiac spheroids. Briefly: cardiogenesis: cTnT+ cardiomyocytes in cardiac spheroids at day 9 (flow cytometry). The settings on record: for effect on cardiogenesis: varying/increasing concentrations, cTnT+ at day 9. An excerpt:
Next, an embryonic stem cell (ESC) line (ESCHcn4-GFP; Tbx1-Cre Ai9) was established from the mice to determine if heart field specification can be recapitulated in a PSC system. It was hypothesized that a 3D multicellular system would better resemble heart field development in vivo, as early development is a highly dynamic process that involves tissue-tissue interactions between multiple cell types. Since CPCs are specified during mid-late gastrulation 7, 8, multicellular 3D spheroids were generated with the PSCs and treated them with various concentrations of Activin A and Bmp4 to determine whether induction of the early mesoderm influences heart field specification (FIGS. 1C and 1D). After 5 days of differentiation (120 h), GFP+ and RFP+ cells started to appear in the spheroids. The spheroids were analyzed for GFP+ and RFP+ cells by fluorescent activated cell sorting (FACS) at day 5.5 (132 h). […] The double positive GFP+/RFP+ cells correlated with the total number of GFP+ and RFP+ cells (FIG. 6J) and were sporadically interspersed within the GFP+ domain (FIG. 6K).
The overall effects on cardiogenesis were evaluated by analyzing the number of cardiomyocytes at day 9 (FIG. 6L).
Mouse ESCs and human iPSCs were maintained and differentiated as previously described^5, 43, 68 Briefly, mESCs were maintained on gelatin-coated dishes in maintenance medium (Glasgow minimum essential medium supplemented with 10% fetal bovine serum and […] Chir99021 and 1 μM PD98059 or 1000 U/ml ESGRO (Millipore, Billerica, Mass.), Glutamax, sodium pyruvate, MEM non-essential amino acids (Thermo Fisher Scientific). For spheroid formation and differentiation, mouse ESCs were plated in IMDM/Ham's F12 (Cellgro) (3:1) supplemented with N2, B27, penicillin/streptomycin, 2 mM GlutaMAX, 0.05% BSA, 5 ng/ml L-ascorbic acid (Sigma-Aldrich) and α-monothioglycerol (MTG; Sigma-Aldrich) at a final density of 100,000 cells/ml to allow spheroid formation. After 48 h spheroids were collected and transferred to ultra-low attachment plastic surface and induced for 40 hours with Activin A, Bmp4, Wnt3A, Wnt5A, Wnt11 (R&D Systems) alone or in combination. Human iPSCs were maintained in Geltrex-coated T25 flasks using Essential 8 medium. For spheroid formation and differentiation, hiPSCs were plated in RPMI plus B27 minus insulin with Bmp4 and CHIR99021 and incubated for 48 h. […]
Mouse embryos (E7.75) were dissected using forceps under a stereomicroscope (Zeiss) and regions of interest were dissociated and harvested using TrypLE. […] Single-cells were analyzed for RFP/GFP expression or sorted using a SH800 Cell sorter (Sony Biotechnologies). Live cells were analyzed for RFP and GFP expression and stained with antibodies targeting for the presence of appropriate markers. […] Data was analyzed using FlowJo software.

The subject of experiment [2] is ESC-derived cardiac spheroids (Hcn4-GFP; Tbx1-Cre; Ai9). Briefly: heart field specification: Hcn4-GFP+ and Tbx1-Cre, RFP+ CPCs in cardiac spheroids by FACS at day 5.5. Conditions: increasing levels of the factor; day 5.5. The text has this:
Next, an embryonic stem cell (ESC) line (ESCHcn4-GFP; Tbx1-Cre Ai9) was established from the mice to determine if heart field specification can be recapitulated in a PSC system. It was hypothesized that a 3D multicellular system would better resemble heart field development in vivo, as early development is a highly dynamic process that involves tissue-tissue interactions between multiple cell types. Since CPCs are specified during mid-late gastrulation 7, 8, multicellular 3D spheroids were generated with the PSCs and treated them with various concentrations of Activin A and Bmp4 to determine whether induction of the early mesoderm influences heart field specification (FIGS. 1C and 1D).
IPA utilizes an input gene list and a curated database of literature-derived pathways to infer which canonical pathways are most significant to the input data set. The analysis was focused on pathways related to ‘organism growth and development’. […] The effect of Bmp signals was evaluated during heart field specification. In order to minimize the possibility of influencing heart field cells after induction, all of the data were analyzed within 12 hs after the appearance of GFP^+/RFP^+ cells.
(§1) Mouse ESCs and human iPSCs were maintained and differentiated as previously described^5, 43, 68 Briefly, mESCs were maintained on gelatin-coated dishes in maintenance medium (Glasgow minimum essential medium supplemented with 10% fetal bovine serum and […] Chir99021 and 1 μM PD98059 or 1000 U/ml ESGRO (Millipore, Billerica, Mass.), Glutamax, sodium pyruvate, MEM non-essential amino acids (Thermo Fisher Scientific). For spheroid formation and differentiation, mouse ESCs were plated in IMDM/Ham's F12 (Cellgro) (3:1) supplemented with N2, B27, penicillin/streptomycin, 2 mM GlutaMAX, 0.05% BSA, 5 ng/ml L-ascorbic acid (Sigma-Aldrich) and α-monothioglycerol (MTG; Sigma-Aldrich) at a final density of 100,000 cells/ml to allow spheroid formation. After 48 h spheroids were collected and transferred to ultra-low attachment plastic surface and induced for 40 hours with Activin A, Bmp4, Wnt3A, Wnt5A, Wnt11 (R&D Systems) alone or in combination. Human iPSCs were maintained in Geltrex-coated T25 flasks using Essential 8 medium. For spheroid formation and differentiation, hiPSCs were plated in RPMI plus B27 minus insulin with Bmp4 and CHIR99021 and incubated for 48 h. After 48 h media was changed to RPMI plus B27 minus insulin. The hiPSC line used in this study was developed by Dr. Linzhao Cheng, the Johns Hopkins University, and had was generated from a de-identified patient using an approved IRB protocol.
Mouse embryos (E7.75) were dissected using forceps under a stereomicroscope (Zeiss) and regions of interest were dissociated and harvested using TrypLE. Embryoid bodies (EBs) and cells were dissociated and harvested using TrypLE. Single-cells were analyzed for RFP/GFP expression or sorted using a SH800 Cell sorter (Sony Biotechnologies). Live cells were analyzed for RFP and GFP expression and stained with antibodies targeting for the presence of appropriate markers. […] Data was analyzed using FlowJo software.

Experiment [3] has as its system ESC-derived cardiac spheroids. Nature of the experiment: qPCR of FHF (tbx5, hcn4) and SHF (tbx1, fgf10) markers in treated spheroids. Conditions: Bmp4 (1.25 ng/ml) alone. The protocol:
To investigate the crosstalk between Bmp and Wnt signals, the spheroids were treated with Bmp4 and Wnts in combinations and analyzed expression levels of FHF (tbx5, hcn4) and SHF (tbx1, fgf10) markers.
as §1
RNA isolation was performed using either RNeasy Micro Kit (Cat #74004, Qiagen) or […]® PicoPure® RNA Isolation Kit following the manufacturer's instructions, and cDNA was generated using the high-capacity cDNA reverse transcription kit (Applied Biosystems). qPCR reactions were performed using the Taqman (Applied Biosystems) or Sybr Select qPCR mix (Thermo Fisher) with indicated primers. Gene expression levels were normalized to Gapdh. For the clonal cell-fate analysis, single Isl1-Cre RFP+, Cxcr4− and Isl1-Cre RFP^+, Cxcr4^+ cells were sorted at day 5.5 into 384-well plates and allowed to grow and differentiate for 7 days. […] RNA was isolated from 24 wells with colonies from Cxcr4− and Cxcr4+ sorted cells, respectively. Ct values<30 were considered positive. All samples were also analyzed for gapdh to exclude false-positive results.

A further experiment deals with canonical Wnt activity. Briefly: Topflash luciferase assay. The settings on record: Bmp4 (1.25 ng/ml) alone; 88 h of differentiation. The protocol:
To test this, canonical Wnt activity was measured with its readout Topflash.
For Tbx1 and Tbx5 knockdown experiments, Tbx1 and Tbx5 ON-TARGETplus SMARTpool siRNA or scrambled siRNA (Dharmacon/Thermo Fisher Scientic) was used at 5 nM for cell transfection. Cells were transfected with Lipofectamine LTX (Life Technologies) in single-cell suspensions. For TOP-flash luciferase assays, mESCs were transfected with Topflash constructs and Renilla constructs and analyzed as previously described 5.

“Also recorded” adds a separate entry of the source.

With “Bmp4: bone morphogenic protein (Bmp) 4, R&D Systems”, the “number of cTnT+ cardiomyocytes” value in experiment [1] (1.25 ng/ml Bmp4, day 9) is reported as over 30%. Further, the “difference in number of cTnT+ cardiomyocytes compared to 0.5 ng/ml Bmp4” value in experiment [1] (1.25 ng/ml vs 0.5 ng/ml Bmp4, day 9) is given as over 10 fold. Besides, in experiment [1], the effect on cardiogenesis result is on record as “profound effect”. In experiment [2], the “induction of GFP+ cells (FHF)” value is recorded as “promoted induction” and the “induction of RFP+ cells (SHF)” value was “promoted induction”. Besides, in experiment [3], the “expression of FHF markers (tbx5, hcn4)” value is “increased expression” and the “expression of SHF markers (tbx1, fgf10)” value is “increased expression”. Besides, the topflash activity entry with canonical Wnt activity is listed as “increased”.

B1: Activin A: TGF-β protein; key ligand for Activin/TGF signaling (protein, UniProt P08476 311-426, looked up)
Inhibin beta A chain: GLECDGKVNICCKKQFFVSFKDIGWNDWIIAPSGYHANYCEGECPSHIAGTSGSSLSFHSTVINHYRMRGHSPFANLKSCCVPTKLRPMSMLYYDDGQNIIKKDIQNMIVEECGCS
modifications: Inhibin beta A chain
With B1, the effect on cardiogenesis entry in experiment [1] is reported as “modest effect; also recorded: did not have a significant effect”. In experiment [2], the “induction of GFP+ cells (FHF)” value is listed as “no apparent effect; also recorded: no overall effect” and the “induction of RFP+ cells (SHF)” value is on record as “no apparent effect; also recorded: no overall effect”.
